The record followed here is patent publication US20040204577A1, “Novel peptide-forming enzyme gene” (Ajinomoto Co., Inc., priority 2003, published 2004).

The test system of experiment [1] is peptide-forming enzyme (Mono S fraction enzyme). Description: Enzyme substrate specificity (1)-(10), (13), (14): peptide production. Details: key to Formed peptide: +: those peptides for which production was confirmed but which were unable to be quantified due to the absence of a standard; a trace amount. The following applies: pH 9.0, 25° C., 3 hours. Type of experiment: biochemical, Empedobacter brevis. How it is done: Ester specificity was examined in the case of using L-amino acid ester for the carboxy component. 2 μl of the same enzyme fraction as used in Example 5 was added to 100 μl of 100 mM borate buffer (pH 9.0) containing the carboxy components indicated in Table 4 at 100 mM, 200 mM L-glutamine and 10 mM EDTA, and allowed to react at 25° C. for 2 hours. HCl represents hydrochloride in Table 4.
Peptide production was examined in the case of using L-alanine methyl ester for the carboxy component and using various L-amino acids for the amine component.
Peptide production was examined in the case of using various types of L-amino acid methyl esters for the carboxy component and using L-glutamine for the amine component. 2 μl of the same enzyme fraction as used in Example 5 was added to 100 μl of 100 mM borate buffer (pH 9.0) containing the L-amino acid methyl ester hydrochloride salts (AA-OMe.HCl) shown in Table 6 at 100 mM, 150 mM L-glutamine and 10 mM EDTA, and allowed to react at 25° C. for 3 hours. […] Furthermore, Tween-80 was added to the reaction system to a final concentration of 0.1% in the case of using L-Trp-OMe and L-Tyr-OMe.
Peptide production was examined in the case of using various L-amino acid methyl esters for the carboxy component and various L-amino acids for the amine component. 2 μl of the same enzyme fraction as used in Example 5 was added to 100 μl of 100 mM borate buffer (pH 9.0) containing the L-amino acid methyl ester hydrochloride salts (AA-OMe.HCl) shown in Table 7 at 100 mM, the L-amino acids shown in Table 7 at 150 mM and 10 mM EDTA, and allowed to react at 25° C. for 3 hours. The “tr” indicates a trace amount. Furthermore, Tween-80 was added to the reaction system to a final concentration of 0.1% in the case of using L-Trp-OMe.
Peptide production was examined in the case of using the L or D forms of various amino acid methyl esters for the carboxy component, and the L or D forms of various amino acids for the amine component. 2 μl of the same enzyme fraction as used in Example 5 was added to 100 μl of 100 mM borate buffer (pH 9.0) containing the various amino acid methyl ester hydrochloride salts (AA-OMe HCl) shown in Table 8 at 100 mM, the various amino acids shown in Table 8 at 150 mM and 10 mM EDTA, and allowed to react at 25° C. for 3 hours. The “tr” indicates a trace amount.
Peptide production was examined using various L-amino acid amides for the carboxy component, and various L-amino acids for the amine component. 2 μl of the same enzyme fraction as that used in Example 5 was added to 100 μl of 100 mM borate buffer (pH 9.0) containing the L-amino acid amide hydrochloride salt (M-NH2.HCl) shown in Table 9 at 100 mM, the L-amino acids shown in Table 9 at 150 mM and 10 mM EDTA, and allowed to react at 25° C. for 3 hours.
Peptide production was examined in the case of using various L-alanine methyl esters for the carboxy component and C-protected L-amino acids for the amine component. 2 μl of the same enzyme fraction as used in Example 5 was added to 100 μl of 100 mM borate buffer (pH 9.0) containing the L-alanine methyl ester hydrochloride hydrochloride salt (Ala-OMe.HCl) shown in Table 10 at 100 mM, the L-amino acid amide hydrochloride salts shown in Table 10 at 150 mM and 10 mM EDTA, and allowed to react at 25° C. for 3 hours.
Peptide production was examined in the case of using various amino acid methyl esters for the carboxy component and methylamine for the amine component. 2 μl of the same enzyme fraction as used in Example 5 was added to 100 μl of 100 mM borate buffer (pH 9.0) containing the amino acid methyl ester hydrochloride salt (M-OMe.HCl) shown in Table 11 at 100 mM, the methylamine shown in Table 11 at 150 mM and 10 mM EDTA, and allowed to react at 25° C. for 3 hours.
Peptide production was examined in the case of using […] for the carboxy component or β-amino acid for the amine component.

For experiment [2], the system named is enzyme derived from Sphingobacterium sp. strain FERM BP-8124 (SP-Sepharose HP fraction enzyme). Description: Enzyme substrate specificity (11), (12): peptide production. Set-up: key to Produced peptide (Table 15-1) / Produced peptide (Table 15-3) / Produced peptide (Table 15-4): +: those peptides for which production was confirmed but which were unable to be quantified due to the absence of a standard; a trace amount. The conditions noted are these: carboxy component 100 mM, 0.33 units enzyme, pH 9.0, 25° C., 1.5 hours; for Produced peptide (Table 15-4): amides and methylamine; for Produced peptide (Table 15-2): L-Gln 150 mM. Type of experiment: biochemical. From the text: Substrate specificity was examined for enzyme derived from Sphingobacterium sp. strain FERM BP-8124 (Depositary institution: the independent administrative corporation, National Institute of Advanced Industrial Science and Technology, International Patent Organism Depositary, Address of depositary institution: Chuo Dai-6, 1-1 Higashi 1-Chome, Tsukuba-shi, Ibaraki-ken, Japan, International deposit date: […] The amounts of various peptides formed in this reaction are shown in Table 15. The “+” mark indicates those peptides for which production was confirmed but which were unable to be quantified due to the absence of a standard, while “tr” indicates a trace amount. Furthermore, Tween-80 was added to the reaction system to a final concentration of 0.1% in the case of using L-Tyr-OMe. In addition, hydrochloride salts were used for all carboxy components. Substrate specificity with respect to oligopeptide production was examined for enzyme derived from Sphingobacterium sp. strain FERM BP-8124 (Depositary institution: the independent administrative corporation, National Institute of Advanced Industrial Science and Technology, International Patent Organism Depositary, Address of depositary institution: Chuo Dai-6, 1-1 Higashi 1-Chome, Tsukuba-shi, Ibaraki-ken, Japan, International deposit date: […] The amounts of each oligopeptide formed in this reaction are shown in Table 16. Furthermore, hydrochloride salts were used for all the carboxy components.

Where [3] appears, read: amino acid methyl ester hydrochloride 100 mM, methylamine 150 mM.
The mark [4] stands for this setting: L-alanine methyl ester hydrochloride 100 mM, L-amino acid amide hydrochloride 150 mM.
Setting [5] is: 100 mM L-alanine methyl ester hydrochloride, L-amino acid 150 mM.
[6] abbreviates: L-amino acid methyl ester hydrochloride 100 mM, 150 mM L-glutamine.
[7] abbreviates: L-amino acid methyl ester hydrochloride 100 mM, L-amino acid 150 mM.

Molecules are shown by their SMILES. Where a SMILES comes first, the peptide text is derived from it. [ ]: non-standard residue; d: D form.

The molecule `CNC(=O)CN` [Gly-methylamine] returned a Formed peptide in experiment [1] (setting [3]) of 1.1 mM. Further, the “Produced peptide (Table 15-4)” value in experiment [2] (amine component 150 mM) stood at 1.0 mM.
Take `C[C@H](N)C(=O)N[C@H](CO)C(=O)O` [L-Ala-D-Ser] (H-Ala-[dS]-OH): the Formed peptide in experiment [1] (L or D amino acid methyl ester hydrochloride 100 mM, L or D amino acid 150 mM) is 5.4 mM. Further, in experiment [2] (amine component 150 mM), the “Produced peptide (Table 15-1)” value came to 3.3 mM.
The molecule `C[C@H](N)C(=O)NCC(N)=O` [L-Ala-Gly-NH2] (H-Ala-Gly-NH2) yielded a Formed peptide in experiment [1] (setting [4]) of 7.4 mM. The “Produced peptide (Table 15-4)” value in experiment [2] (amine component 150 mM) was determined as 15.1 mM.
In turn, `C[C@H](N)C(=O)NCC(=O)O` [L-Ala-Gly] (H-Ala-Gly-OH) yielded a Formed peptide in experiment [1] (setting [5]) of 13.7 mM. Besides, the “Produced peptide (Table 15-1)” value in experiment [2] (amine component 150 mM) is on record as 11.1 mM.
In experiment [1] (setting [4]), `C[C@H](N)C(=O)N[C@@H](C)C(N)=O` [L-Ala-L-Ala-NH2] (H-Ala-Ala-NH2) had a Formed peptide of 8.3 mM. Besides, the “Produced peptide (Table 15-4)” value in experiment [2] (amine component 150 mM) was found to be 9.2 mM.
Consider `C[C@H](N)C(=O)N[C@@H](C)C(=O)O` [L-Ala-L-Ala] (H-Ala-Ala-OH), for which, in experiment [1] (setting [5]), the Formed peptide is on record as 25.4 mM. In addition, in experiment [1] (L-amino acid ester 100 mM, peptide (amine component) 150 mM), the Produced peptide stood at 28.7 mM. In experiment [2] (amine component 150 mM), the “Produced peptide (Table 15-1)” value turned out to be 13.1 mM and the “Produced peptide (Table 16, oligopeptide)” value stood at 25.6 mM.
`C[C@H](N)C(=O)N[C@@H](CC(N)=O)C(=O)O` [L-Ala-L-Asn] (H-Ala-Asn-OH) registered a Formed peptide in experiment [1] (setting [5]) of 65.5 mM. Moreover, the “Produced peptide (Table 15-1)” value in experiment [2] (amine component 150 mM) came to 52.3 mM.
Taken in the same sequence, the figures for `C[C@H](N)C(=O)N[C@@H](CC(=O)O)C(=O)O` [L-Ala-L-Asp] (H-Ala-Asp-OH) were 2.1 mM and 2.3 mM.
Taken in the same sequence, the figures for `C[C@H](N)C(=O)N[C@@H](CS)C(=O)O` [L-Ala-L-CySH] (H-Ala-Cys-OH) were “+” and “+”.
Taken in the same sequence, the figures for `C[C@H](N)C(=O)N[C@@H](CCC(=O)O)C(=O)O` [L-Ala-L-Glu] (H-Ala-Glu-OH) were 42.9 mM and 39.1 mM.
The molecule `CC[C@H](C)[C@H](NC(=O)[C@H](C)N)C(=O)O` [L-Ala-L-Ile] (H-Ala-Ile-OH) had a Formed peptide in experiment [1] (setting [5]) of 33.9 mM. For the same molecule, the “Produced peptide (Table 15-1)” value in experiment [2] (amine component 150 mM) is 24.7 mM.
In experiment [1] (setting [5]), `C[C@H](N)C(=O)N[C@@H](CCCCN)C(=O)O` [L-Ala-L-Lys] (H-Ala-Lys-OH) showed a Formed peptide of 71.8 mM. The “Produced peptide (Table 15-1)” value in experiment [2] (amine component 150 mM) was found to be 71.2 mM.
The molecule `C[C@H](N)C(=O)N[C@@H](Cc1ccccc1)C(N)=O` [L-Ala-L-Phe-NH2] registered a Formed peptide in experiment [1] (setting [4]) of 12.2 mM. The “Produced peptide (Table 15-4)” value in experiment [2] (amine component 150 mM) was 27.1 mM.
On to `C[C@H](N)C(=O)N1CCC[C@H]1C(=O)O` [L-Ala-L-Pro] (H-Ala-Pro-OH), for which the Formed peptide result in experiment [1] (setting [5]) is reported as “tr”. In experiment [2] (amine component 150 mM), the “Produced peptide (Table 15-1)” value is listed as 1.5 mM.
Taken in the same sequence, the figures for `C[C@H](N)C(=O)N[C@H](C(=O)O)[C@@H](C)O` [L-Ala-L-Thr] (H-Ala-Thr-OH) were 53.9 mM and 47.3 mM.
Taken in the same sequence, the figures for `C[C@H](N)C(=O)N[C@@H](Cc1c[nH]c2ccccc12)C(=O)O` [L-Ala-L-Trp] (H-Ala-Trp-OH) were 53.9 mM and 46.0 mM.
Taken in the same sequence, the figures for `C[C@H](N)C(=O)N[C@@H](Cc1ccc(O)cc1)C(=O)O` [L-Ala-L-Tyr] (H-Ala-Tyr-OH) were 17.6 mM and 11.1 mM.
Consider `CC(C)[C@H](NC(=O)[C@H](C)N)C(=O)O` [L-Ala-L-Val] (H-Ala-Val-OH), for which, in experiment [1] (setting [5]), the Formed peptide is on record as 20.8 mM. Besides, the “Produced peptide (Table 15-1)” value in experiment [2] (amine component 150 mM) was 10.9 mM.
Molecule `CNC(=O)C(C)N` [L-Ala-methylamine] had a Formed peptide in experiment [1] (setting [3]) of 0.3 mM. For the same molecule, the “Produced peptide (Table 15-4)” value in experiment [2] (amine component 150 mM) is 0.6 mM.
In experiment [1] (setting [6]), `NC(=O)CC[C@H](NC(=O)[C@@H](N)CCCN=C(N)N)C(=O)O` [L-Arg-L-Gln] (H-Arg-Gln-OH) gave a Formed peptide of 7.1 mM. Besides, the “Produced peptide (Table 15-2)” value in experiment [2] was 17.2 mM.
As for `CSCC[C@H](NC(=O)[C@@H](N)CCCN=C(N)N)C(=O)O` [L-Arg-L-Met] (H-Arg-Met-OH), the Formed peptide in experiment [1] (setting [7]) was found to be 0.7 mM. For the same molecule, in experiment [2] (amine component 150 mM), the “Produced peptide (Table 15-3)” value is “tr”.
Taken in the same sequence, the figures for `NC(N)=NCCC[C@H](N)C(=O)N[C@@H](Cc1ccccc1)C(=O)O` [L-Arg-L-Phe] were 1.9 mM and “tr”.
Taken in the same sequence, the figures for `NC(N)=NCCC[C@H](N)C(=O)N[C@@H](CO)C(=O)O` [L-Arg-L-Ser] (H-Arg-Ser-OH) were 3.6 mM and 2.2 mM.
In the case of `NC(=O)CC[C@H](NC(=O)[C@@H](N)CCC(N)=O)C(=O)O` [L-Gln-L-Gln] (H-Gln-Gln-OH), in experiment [1] (setting [6]), the Formed peptide was 0.3 mM. Moreover, the “Produced peptide (Table 15-2)” value in experiment [2] is reported as 0.1 mM.
Taken in the same sequence, the figures for `CC[C@H](C)[C@H](N)C(=O)N[C@@H](CCC(N)=O)C(=O)O` [L-Ile-L-Gln] (H-Ile-Gln-OH) were 8.4 mM and 6.4 mM.
Turning to `CC[C@H](C)[C@H](N)C(=O)N[C@@H](Cc1ccccc1)C(=O)O` [L-Ile-L-Phe] (H-Ile-Phe-OH), in experiment [1] (setting [7]), the Formed peptide is on record as 5.2 mM. Further, the “Produced peptide (Table 15-3)” value in experiment [2] (amine component 150 mM) is 1.5 mM.
Taken in the same sequence, the figures for `CC[C@H](C)[C@H](N)C(=O)N[C@@H](CO)C(=O)O` [L-Ile-L-Ser] (H-Ile-Ser-OH) were 17.2 mM and 17.3 mM.
